The values below are quoted from earlier work in patent publication US9974792B2, “Methods for treating cancers” (Gilead Sciences, Inc., priority 2013, dated 2018).

The test system of data set [1] is subjects with B-cell malignancies, CLL/SLL. To be noted: cited from earlier work.
Data set [2] has as its system CLL subjects. The conditions noted are these: rituximab monotherapy; CLL subjects with similar median age and prior therapies; cited from earlier work.

On to `COc1cc(Nc2ncc(F)c(Nc3ccc4c(n3)N(COP(=O)(O)O)C(=O)C(C)(C)O4)n2)cc(OC)c1OC` [fostamatinib], for which, in data set [1] (11 subjects with CLL/SLL), the PFS is listed as 6.4 months. In addition, the “overall progression-free survival (PFS)” value in data set [1] (participants treated in the phase 2 portion of the study) was 18 weeks. Further, the Response rate in data set [1] (six subjects with partial lymph-node reduction of at least 50%) is listed as 54.5%.

Turning to “rituximab: monoclonal antibody (anti-CD20), monotherapy comparator in CLL subjects”, the “24-week PFS” value in data set [2] is on record as 46%.
